What was measured:
[1] = Evaluation of absorption maximum and absorbance ratio (500 nm/λmax) in solution; type: physicochemical; details: for Absorbance Ratio (500 nm/λmax) / Absorption Maximum (nm): solvent chloroform; for λmax (nm) of Second Near Infrared Absorbing Compound: as listed in Table 58
Excerpt: In this specification, “having an absorption maximum in a wavelength range of 650 to 1000 nm” denotes having a maximum absorbance in a wavelength range of 650 to 1000 nm in an absorption spectrum of the near infrared absorbing compound in a solution. Examples of a measurement solvent used for the measurement of the absorption spectra of the near infrared absorbing compound in the solution include chloroform, methanol, dimethyl sulfoxide, ethyl acetate, and tetrahydrofuran. In the case of a compound which is soluble in chloroform, chloroform is used as the measurement solvent. In the case of a compound which is not soluble in chloroform, methanol is used. In addition, In the case of a compound which is not soluble in chloroform and methanol, dimethyl sulfoxide is used.
Each of the compounds was dissolved in a measurement solvent shown in the following tables (concentration: 2.5×10^−6 mol/L) to measure an absorption spectrum (optical path length: 10 mm).
In addition, an absorbance ratio (500 nm/λmax) as a value obtained by dividing an absorbance at a wavelength of 500 nm by an absorbance at an absorption maximum was evaluated based on the following criteria.
A: the absorbance ratio (500 nm/λmax) was 0.04 or lower
B: the absorbance ratio (500 nm/λmax) was higher 0.04 and 0.08 or lower
C: the absorbance ratio (500 nm/λmax) was higher than 0.08

[2] = Evaluation of solubility in water at 23° C.; type: physicochemical; details: stirred for 1 hour
Procedure: Each of the compounds was added to water at 23° C. under the atmospheric pressure, the components were stirred for 1 hour, and the solubility of the compound in water was obtained. The solubility of the compound was evaluated based on the following criteria.
A: the solubility in water at 23° C. was 0.1 mass % or lower
B: the solubility in water at 23° C. was higher than 0.1 mass % and 1 mass % or lower
C: the solubility in water at 23° C. was higher than 1 mass %

| Structure (SMILES) | Absorption Maximum (nm) [1] [nm] | λmax (nm) of Second Near Infrared Absorbing Compound [1] [nm] | Second Near Infrared Absorbing Compound λmax (nm) ([1]; absorption maximum of the second near infrared absorbing compound) | Absorbance Ratio (500 nm/λmax) [1] | Solubility [2] |
| --- | --- | --- | --- | --- | --- |
| CCCCC(CC)CC(=O)NC1=CC(=[N+](c2ccc(C)cc2)c2ccc(C)cc2)C=C/C1=C1\C(=O)C(c2ccc(N(c3ccc(C)cc3)c3ccc(C)cc3)cc2NC(=O)CC(CC)CCCC)=C1[O-] (centres unmarked) [Compound Q-3] | 737 | – | – | A (the absorbance ratio (500 nm/λmax) was 0.04 or lower) | A (the solubility in water at 23 °C was 0.1 mass % or lower) |
| CCCCC(CC)CC(=O)Nc1cc2c(cc1C1=C([O-])/C(=c3/cc4c(cc3NC(=O)CC(CC)CCCC)=[N+](C)C(C)C4(C)C)C1=O)C(C)(C)C(C)N2C (centres unmarked) [Compound Q-36] | 704 | 704 | – | A (the absorbance ratio (500 nm/λmax) was 0.04 or lower) | A (the solubility in water at 23 °C was 0.1 mass % or lower) |
| CCCCC(CC)COc1ccc(B2N=c3/c(=C4/C(=O)C(c5ccc6cccc7c6c5NB(c5ccc(OCC(CC)CCCC)cc5)N7)=C4O)ccc4cccc(c34)N2)cc1 (centres unmarked) [Compound Q-39] | 822 | – | – | A (the absorbance ratio (500 nm/λmax) was 0.04 or lower) | A (the solubility in water at 23 °C was 0.1 mass % or lower) |
| CCCCN1/C(=C/C2=C([O-])C(=C/c3sc4c5ccccc5ccc4[n+]3CCCC)/C2=O)Sc2c1ccc1ccccc21 [Compound Q-54] | 698 | – | – | A (the absorbance ratio (500 nm/λmax) was 0.04 or lower) | A (the solubility in water at 23 °C was 0.1 mass % or lower) |
| CC(C)CCCCCCCC(CCCCCC(C)C)COc1ccc(-c2c3c(=C(C#N)c4nc5ccccc5o4)n(B(c4ccccc4)c4ccccc4)c(-c4ccc(OCC(CCCCCCCC(C)C)CCCCCC(C)C)cc4)c3c(=C(C#N)c3nc4ccccc4o3)n2B(c2ccccc2)c2ccccc2)cc1 (centres unmarked) [II-9] | 740 | – | – | A (the absorbance ratio (500 nm/λmax) was 0.04 or lower) | A (the solubility in water at 23 °C was 0.1 mass % or lower) |
| CCCCCCCCCCC(CCCCCCCC)COc1cccc(-c2c3/c(=C(\C#N)c4nc5ccccc5o4)n(B(c4ccccc4)c4ccccc4)c(-c4cccc(OCC(CCCCCCCC)CCCCCCCCCC)c4)c3/c(=C(\C#N)c3nc4ccccc4o3)n2B(c2ccccc2)c2ccccc2)c1 (centres unmarked) [II-29] | 743 | 743 | – | A (the absorbance ratio (500 nm/λmax) was 0.04 or lower) | A (the solubility in water at 23 °C was 0.1 mass % or lower) |
| Cc1ccccc1B(c1ccccc1C)n1c(-c2ccc(OCC(CCCCCCCC(C)C)CCCCCC(C)C)cc2)c2c(=C(C#N)c3nc4ccccc4o3)n(B(c3ccccc3C)c3ccccc3C)c(-c3ccc(OCC(CCCCCCCC(C)C)CCCCCC(C)C)cc3)c2c1=C(C#N)c1nc2ccccc2o1 (centres unmarked) [II-43] | 732 | – | – | A (the absorbance ratio (500 nm/λmax) was 0.04 or lower) | A (the solubility in water at 23 °C was 0.1 mass % or lower) |
| CC(C)CCCCCCCC(CCCCCC(C)C)COc1cccc(-c2c3c(=C(C#N)c4nc5ccccc5o4)n(B4Oc5ccccc5O4)c(-c4cccc(OCC(CCCCCCCC(C)C)CCCCCC(C)C)c4)c3c(=C(C#N)c3nc4ccccc4o3)n2B2Oc3ccccc3O2)c1 (centres unmarked) [II-91] | 679 | 679 | – | A (the absorbance ratio (500 nm/λmax) was 0.04 or lower) | A (the solubility in water at 23 °C was 0.1 mass % or lower) |
| Cc1ccc2oc(C(C#N)=c3c4c(-c5ccc(OCC(CCCCCCCC(C)C)CCCCCC(C)C)cc5)n(B(c5ccccc5C)c5ccccc5C)c(=C(C#N)c5nc6cc(C)ccc6o5)c4c(-c4ccc(OCC(CCCCCCCC(C)C)CCCCCC(C)C)cc4)n3B(c3ccccc3C)c3ccccc3C)nc2c1 (centres unmarked) [II-201] | 737 | – | – | A (the absorbance ratio (500 nm/λmax) was 0.04 or lower) | A (the solubility in water at 23 °C was 0.1 mass % or lower) |

Second part, led by results:

| Absorption Maximum (nm) [1] [nm] | λmax (nm) of Second Near Infrared Absorbing Compound [1] [nm] | Second Near Infrared Absorbing Compound λmax (nm) ([1]; absorption maximum of the second near infrared absorbing compound) | Structure (SMILES) | Absorbance Ratio (500 nm/λmax) [1] | Solubility [2] |
| --- | --- | --- | --- | --- | --- |
| 885 | – | – | CC(CCC(COc1ccc(-c2c3/c(=C(\C#N)c4cnc5cc(Cl)c(Cl)cc5n4)n(B(c4ccccc4)c4ccccc4)c(-c4ccc(O)cc4)c3/c(=C(\C#N)c3cnc4cc(Cl)c(Cl)cc4n3)n2B(c2ccccc2)c2ccccc2)cc1)C(C)CC(C)(C)C)CC(C)(C)C (centres unmarked) [Compound V-42] | A (the absorbance ratio (500 nm/λmax) was 0.04 or lower) | A (the solubility in water at 23 °C was 0.1 mass % or lower) |
| 740 | – | – | CC(CCC(COc1ccc(-c2c3c(=C(C#N)c4nc5ccccc5o4)n(B(c4ccccc4)c4ccccc4)c(-c4ccc(OCC(CCC(C)CC(C)(C)C)C(C)CC(C)(C)C)cc4)c3c(=C(C#N)c3nc4ccccc4o3)n2B(c2ccccc2)c2ccccc2)cc1)C(C)CC(C)(C)C)CC(C)(C)C (centres unmarked) [II-10] | A (the absorbance ratio (500 nm/λmax) was 0.04 or lower) | A (the solubility in water at 23 °C was 0.1 mass % or lower) |
| 743 | 743 | – | CC(C)CCCCCCCC(CCCCCC(C)C)COc1cccc(-c2c3c(=C(C#N)c4nc5ccccc5o4)n(B(c4ccccc4)c4ccccc4)c(-c4cccc(OCC(CCCCCCCC(C)C)CCCCCC(C)C)c4)c3c(=C(C#N)c3nc4ccccc4o3)n2B(c2ccccc2)c2ccccc2)c1 (centres unmarked) [II-27] | A (the absorbance ratio (500 nm/λmax) was 0.04 or lower) | A (the solubility in water at 23 °C was 0.1 mass % or lower) |
| 732 | – | – | Cc1ccccc1B(c1ccccc1C)n1c(-c2ccc(OCC(CCC(C)CC(C)(C)C)C(C)CC(C)(C)C)cc2)c2/c(=C(\C#N)c3nc4ccccc4o3)n(B(c3ccccc3C)c3ccccc3C)c(-c3ccc(OCC(CCC(C)CC(C)(C)C)C(C)CC(C)(C)C)cc3)c2/c1=C(\C#N)c1nc2ccccc2o1 (centres unmarked) [II-44] | A (the absorbance ratio (500 nm/λmax) was 0.04 or lower) | A (the solubility in water at 23 °C was 0.1 mass % or lower) |
| 745 | – | – | Cc1ccc2oc(C(C#N)=c3c4c(-c5ccc(OCC(CCCCCCCC(C)C)CCCCCC(C)C)cc5)n(B(c5ccccc5)c5ccccc5)c(=C(C#N)c5nc6cc(C)ccc6o5)c4c(-c4ccc(OCC(CCCCCCCC(C)C)CCCCCC(C)C)cc4)n3B(c3ccccc3)c3ccccc3)nc2c1 (centres unmarked) [II-167] | A (the absorbance ratio (500 nm/λmax) was 0.04 or lower) | A (the solubility in water at 23 °C was 0.1 mass % or lower) |
| 745 | – | – | Cc1ccc2oc(C(C#N)=c3c4c(-c5ccc(OCC(CCC(C)CC(C)(C)C)C(C)CC(C)(C)C)cc5)n(B(c5ccccc5)c5ccccc5)c(=C(C#N)c5nc6cc(C)ccc6o5)c4c(-c4ccc(OCC(CCC(C)CC(C)(C)C)C(C)CC(C)(C)C)cc4)n3B(c3ccccc3)c3ccccc3)nc2c1 (centres unmarked) [II-168] | A (the absorbance ratio (500 nm/λmax) was 0.04 or lower) | A (the solubility in water at 23 °C was 0.1 mass % or lower) |
| 749 | – | – | Cc1ccc2oc(/C(C#N)=c3/c4c(-c5ccc(O)cc5)n(B(c5ccccc5)c5ccccc5)/c(=C(/C#N)c5nc6cc(C)ccc6o5)c4c(-c4ccc(O)cc4)n3B(c3ccccc3)c3ccccc3)nc2c1 [II-184] | A (the absorbance ratio (500 nm/λmax) was 0.04 or lower) | A (the solubility in water at 23 °C was 0.1 mass % or lower) |
| 748 | – | – | Cc1ccc2oc(C(C#N)=c3c4c(-c5cccc(OCC(CCCCCCCC(C)C)CCCCCC(C)C)c5)n(B(c5ccccc5)c5ccccc5)c(=C(C#N)c5nc6cc(C)ccc6o5)c4c(-c4cccc(OCC(CCCCCCCC(C)C)CCCCCC(C)C)c4)n3B(c3ccccc3)c3ccccc3)nc2c1 (centres unmarked) [II-185] | A (the absorbance ratio (500 nm/λmax) was 0.04 or lower) | A (the solubility in water at 23 °C was 0.1 mass % or lower) |
| 748 | – | 743 | Cc1ccc2oc(/C(C#N)=c3/c4c(-c5cccc(OCC(CCC(C)CC(C)(C)C)C(C)CC(C)(C)C)c5)n(B(c5ccccc5)c5ccccc5)/c(=C(/C#N)c5nc6cc(C)ccc6o5)c4c(-c4cccc(OCC(CCC(C)CC(C)(C)C)C(C)CC(C)(C)C)c4)n3B(c3ccccc3)c3ccccc3)nc2c1 (centres unmarked) [II-186] | A (the absorbance ratio (500 nm/λmax) was 0.04 or lower) | A (the solubility in water at 23 °C was 0.1 mass % or lower) |
| 737 | – | – | Cc1ccc2oc(/C(C#N)=c3/c4c(-c5ccc(OCC(CCC(C)CC(C)(C)C)C(C)CC(C)(C)C)cc5)n(B(c5ccccc5C)c5ccccc5C)/c(=C(/C#N)c5nc6cc(C)ccc6o5)c4c(-c4ccc(OCC(CCC(C)CC(C)(C)C)C(C)CC(C)(C)C)cc4)n3B(c3ccccc3C)c3ccccc3C)nc2c1 (centres unmarked) [II-202] | A (the absorbance ratio (500 nm/λmax) was 0.04 or lower) | A (the solubility in water at 23 °C was 0.1 mass % or lower) |

— patent US10947389B2, “Composition, film, near infrared cut filter, laminate, pattern forming method, solid image pickup element, image display device, infrared sensor, and color filter” (FUJIFILM Corporation, priority 2016, dated 2021)
